The values below come from US20070270418A1, “Inhibitors of P38 and Methods of Using the Same” (priority 2003, published 2007).

The structures appear in SMILES notation. Read-outs that look alike come from different tables or passages of the source.

One experiment has as its target T1, p38β (Homo sapiens, UniProt Q15759).
T1 construct: p38 MAP Kinases are recombinant human full-length proteins with an amino-terminal GST fusion; GST (N); purchased Upstate (Charlottesville, Va.); host or cells: E. coli
Briefly: Kinase selectivity, ATF2 phosphorylation ELISA. The format is biochemical. Here is the method:
All kinases and the substrate ATF2 are acquired from Upstate (Charlottesville, Va.). p38 MAP Kinases are recombinant human full-length proteins with an amino-terminal GST fusion, expressed in and purified from E. coli. ATF2 is a GST fusion protein containing amino acids 19-96 of human ATF2 expressed in E. coli. All proteins were aliquoted and stored at −80° C.
p38 MAP Kinase assays are performed using an assay buffer containing 25 mM HEPES, pH 7.5, 10 mM MgCl2, 2 mM DTT, 20 mM β-glycerophosphate, 0.1 mM Na3VO4, 40 μM ATP and 1.25 μM of ATF2, together with 6 ng of p38α protein, 12 ng p38β protein, 1.5 ng p38γ, or 0.4 ng JNK2α2. Compounds are serially diluted in DMSO and 2 μL of test compound at 25× final concentration is used. The vehicle control receives DMSO only. Test compounds are pre-incubated with 20 μl of enzyme in kinase buffer (25 mM HEPES, pH 7.5, 10 mM MgCl2, 2 mM DTT, 20 mM 3-glycerophosphate and 0.1 mM Na3VO4) at room temperature for 15 minutes. […] The reactions are incubated for 30 minutes at 37° C. and terminated by the addition of 18 μl of 200 mM EDTA. An ELISA method is used to measure the phosphorylation of ATF2 at Thr 69. High binding 96-well plates (Corning 3369) are coated with 50 μl of kinase reaction for 1 hour at 37° C. The coated plates are washed with 200 μl washing buffer (25 mM Tris HCl, pH 8.3, 192 mM glycine, 0.1% SDS and 0.05% Tween-20) three times. The plates are then washed three times with SuperBlock in TBS (Pierce, 37535). After blocking, plates are incubated with 50 μl of rabbit anti-phospho-ATF2 antibody (Cell Signaling, 9221 L, 1:500) for 30 minutes at 37° C. Plates are washed three times with washing buffer prior to incubation with 50 μl HRP-conjugated goat anti-rabbit antibody (Cell Signaling, 7074, 1:500) for 30 minutes at 37° C. Plates are then washed three times with washing buffer before incubation with 50 μl of Ultra TMB-ELISA (Pierce, 34028) for 8 minutes at room temperature. Finally, 50 μl of phosphoric acid (1 M) is added to stop reactions and plate absorbance is read at 450 nm on a SpectraMax 250 plate reader.
A selectivity panel is used to test the cross-reactivity of compounds of the invention with the β and γ isoforms of p38 MAP kinase, Src^p60 and JNK2α2. The p38β, p38γ, and JNK2α2 assays are described in Example 4. The Src^p60 assay measures the ability of compounds to inhibit Src^p60-catalyzed phosphorylation of a peptide substrate.

In experiment [1] the test system is collagen-induced arthritis in rats. Briefly: In vivo established type II collagen arthritis study. To be noted: Rattus norvegicus, po, oral gavage bid, days 1-7 of arthritis. More on the design: species or system Female Lewis rats. How it is done:
Compounds are tested in the collagen-induced model of arthritis in rats. Female Lewis rats (0.16-0.2 kg) are injected subcutaneously at the base of the tail and two sites on the back on day 0 and 6 with 300 μl of Freund's Incomplete Adjuvant containing 2 mg/ml of Bovine Type II Collagen. On day 9 of the study, caliper measurements of both hind leg ankle joints are performed. This measurement is considered the normal, pre-disease measurement. When ankle swelling is clearly established in at least one hind paw (caliper measurement increase from 0.263 to 0.282 inches), rats are enrolled into the treatment phase of the study. This occurs on day 10 or 11 of the study and is considered to be day 1 of arthritis. Enrolled animals are randomized and administered vehicle control or compound (1, 3.3, 10, or 30 mg/kg, bid), unless otherwise indicated, or dexamethasone (0.0375 mg/kg, bid) via oral gavage on days 1-7 of arthritis (treatment days). Ankle diameters are measured on each day of treatment. Mean increases in ankle diameter for 7 lead compounds are shown below in FIGS. 3-9.
Following sacrifice on day 7, both hind paws are removed from each animal and weighed. Knees and ankles from all animals in all groups are preserved, decalcified in 5% formic acid and trimmed into two approximately equal longitudinal (ankles) or frontal (knees) halves, dehydrated, cleared, infiltrated, and embedded in paraffin. Blocks are sectioned and stained with Toluidine Blue.
Tissues are examined microscopically and scored for knee and ankle inflammation (cellular infiltration), pannus formation and infiltration, cartilage damage (loss of Toluidine staining and collagen disruption) and bone resorption. Scoring is on a scale from 0-5, where a score of 0 is normal and a score of 5 indicates severe damage or evidence of disease or both.

Experiment [2] relates to TNFα release from THP-1 cells. Kind of experiment: TNFα release from LPS-stimulated THP-1 cells. The experiment is classed as cell-based. To be noted: Homo sapiens, THP-1, 18 h, LPS 10 μg/ml, 18 hours; read-out: TNFα (THP-1) IC50. The method in brief: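 THP-1 cells (10^6 cells/ml on resuspension) preincubated with compound 30 min at 37°C, 5% CO2, final DMSO ≤0.5%, then stimulated with 10 μg/ml LPS for 18 h (TNFα). Supernatants collected for TNFα analysis.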

The mark [3] stands for this setting: first column so headed (c3), read-out: ED50 summed ankle histology.
Where [4] appears, read: second column so headed (c4), read-out: ED50 summed ankle histology.

T1 sequence (Q15759 whole entry, the tested form may be a part): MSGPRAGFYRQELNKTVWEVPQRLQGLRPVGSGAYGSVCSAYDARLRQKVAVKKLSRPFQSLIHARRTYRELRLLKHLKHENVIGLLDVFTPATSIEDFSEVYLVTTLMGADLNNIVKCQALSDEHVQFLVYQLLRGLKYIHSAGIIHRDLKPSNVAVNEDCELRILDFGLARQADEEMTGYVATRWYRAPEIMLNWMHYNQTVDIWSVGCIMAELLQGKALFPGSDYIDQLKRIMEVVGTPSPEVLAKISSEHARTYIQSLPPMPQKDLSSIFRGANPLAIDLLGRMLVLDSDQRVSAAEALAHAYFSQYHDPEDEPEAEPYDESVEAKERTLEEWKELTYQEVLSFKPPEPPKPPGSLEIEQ

Take `CS(=O)(=O)N1CCC(Nc2nccc(-c3c(-c4ccc(F)cc4)nc4occn34)n2)CC1` [CCLXXIX]: the IC50 on p38β was 1.8 nM; in experiment [2], 5.1 nM. The ED50 in experiment [1] (setting [3]) was determined as 4.29 mg/kg; in experiment [1] (read-out: ED50 ankle diameter), 2.09 mg/kg; in experiment [1] (read-out: ED50 paw weights), 2.57 mg/kg; in experiment [1] (setting [4]) it was 0.72 mg/kg.

As to `CC(=O)N1CCC(Nc2nccc(-c3c(-c4ccc(F)cc4)nc4occn34)n2)CC1` [CCLXXVIII], the IC50 at p38β was determined as 6.3 nM; in experiment [2] it was 9.26 nM. Besides, the ED50 in experiment [1] (setting [3]) is 3.09 mg/kg; in experiment [1] (read-out: ED50 ankle diameter), 2.04 mg/kg; in experiment [1] (read-out: ED50 paw weights), 1.55 mg/kg; in experiment [1] (setting [4]), 1.24 mg/kg.

Consider `CN1[C@@H]2CC[C@H]1C[C@@H](Nc1nccc(-c3c(-c4ccc(F)cc4)nc4occn34)n1)C2` [CCLXXXI], for which the IC50 on p38β turned out to be 24.6 nM; in experiment [2], 3.64 nM. In addition, the ED50 in experiment [1] (setting [3]) was 0.93 mg/kg; in experiment [1] (read-out: ED50 ankle diameter), 0.98 mg/kg; in experiment [1] (read-out: ED50 paw weights), 0.94 mg/kg; in experiment [1] (setting [4]), 0.2 mg/kg.

On to `Fc1ccc(-c2nc3occn3c2-c2ccnc(NC3CCNCC3)n2)cc1` [CCLXXX], for which the values for the IC50 (against p38β; in experiment [2]) were 95.4 nM and 7.89 nM, respectively. Also, the ED50 in experiment [1] (setting [3]) came out at 7.6 mg/kg; in experiment [1] (read-out: ED50 ankle diameter), 5.43 mg/kg; in experiment [1] (read-out: ED50 paw weights), 3.51 mg/kg; in experiment [1] (setting [4]) it was 1.04 mg/kg.

As for `CN(C)CC(C)(C)CNc1nccc(-c2c(-c3ccc(F)cc3)nc3occn23)n1` [CXIX], the half-maximal inhibitory concentration (IC50) on p38β came to 288 nM; in experiment [2], 33.1 nM. Besides, the ED50 in experiment [1] (setting [3]) was determined as 2.64 mg/kg; in experiment [1] (read-out: ED50 ankle diameter), 2.3 mg/kg; in experiment [1] (read-out: ED50 paw weights), 3.75 mg/kg; in experiment [1] (setting [4]), 1.19 mg/kg.

On to `Fc1ccc(-c2nc3occn3c2-c2ccnc(N[C@@H]3CN4CCC3CC4)n2)cc1` [LXXI], for which the IC50 against p38β amounted to 114 nM; in experiment [2], 19.1 nM.

For `Fc1ccc(-c2nc3occn3c2-c2ccnc(NC3CN4CCC3CC4)n2)cc1` (stereo not drawn) [LXXXIV], the IC50 came to 1290 nM at p38β and 9.28 nM in experiment [2]. In addition, the 50% effective dose (ED50) in experiment [1] (setting [3]) amounted to 2.6 mg/kg; in experiment [1] (read-out: ED50 ankle diameter) it was 1.9 mg/kg; in experiment [1] (read-out: ED50 paw weights), 2 mg/kg; in experiment [1] (setting [4]) it was 0.6 mg/kg.

Regarding `Fc1ccc(-c2nc3occn3c2-c2ccnc(N[C@H]3CN4CCC3CC4)n2)cc1` [LXXXVII], the IC50 against p38β was found to be 150 nM; in experiment [2] it was 1.87 nM. Also, the “selectivity over p38β as compared to p38α” value at p38β is 17 fold. Further, the ED50 was 2.07 mg/kg in experiment [1] (setting [3]), 1.29 mg/kg in experiment [1] (read-out: ED50 ankle diameter), 1.88 mg/kg in experiment [1] (read-out: ED50 paw weights) and 0.42 mg/kg in experiment [1] (setting [4]).
